Test results from patent publication US7112607B2, “Allosteric adenosine receptor modulators” (King Pharmaceuticals Research & Development, Inc., priority 1997, dated 2006).

Target: T1, human recombinant A1 adenosine receptors (Homo sapiens, UniProt P30542)
T1 construct: expressed in transfected cells; host or cells: Chinese hamster ovary (CHO) cells, CHO:huA1, G-418 selected
T1 sequence (P30542 1-326): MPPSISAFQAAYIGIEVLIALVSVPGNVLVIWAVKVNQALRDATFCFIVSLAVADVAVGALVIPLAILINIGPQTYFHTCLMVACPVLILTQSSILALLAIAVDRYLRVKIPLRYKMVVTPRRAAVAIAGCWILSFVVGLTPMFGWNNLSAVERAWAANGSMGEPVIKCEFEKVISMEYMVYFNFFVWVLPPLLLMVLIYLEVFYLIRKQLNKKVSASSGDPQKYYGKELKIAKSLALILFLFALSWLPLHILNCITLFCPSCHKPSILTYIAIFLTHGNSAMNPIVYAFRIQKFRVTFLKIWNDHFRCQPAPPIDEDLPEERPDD
Test: Allosteric enhancement: reduction of cAMP content of CHO:huA1 cells (radioimmunoassay)
Type: cell-based
Details: forskolin 1 μM, rolipram 20 μM, CPA 0.01 nM, adenosine deaminase, 6 min at 36° C.; for inhibition at 0.01 µM / inhibition at 0.1 µM / inhibition at 1 µM / inhibition at 10 µM: 0.1 h, read-out: Change in cAMP Content from Control (mean + SEM)
Experimental: Chinese hamster ovary cells expressing human recombinant A1 adenosine receptors (CHO:huA1 cells) at a density of approximately 8000 fmol/mg protein were prepared as previously described (Kollias-Baker et al., (1997), J. Pharmacol. Exp. Ther. 281: 761–768) and aliquots of the cells at low passage numbers were frozen and stored in liquid nitrogen. When compounds were tested, an aliquot of CHO:huA1 cells were rapidly thawed after removal from liquid nitrogen, then grown in Ham's F12 culture medium with 10% fetal bovine serum and 0.5 mg/mL of antibiotic G-418 (Shryock, Ozeck, and Belardinelli (1998), Mol. Pharmacol 53: 886–893). Cells were passaged thrice weekly. Aliquots of cells were placed into 12-well plates with culture medium, serum, and antibiotic for 48 hours, by which time the cells had grown to a confluent monolayer.
Allosteric enhancement was measured as the action of a test compound at different concentrations (0.01, 0.1, 1 and 10 μM) to reduce the cAMP content of CHO:huA1 cells. To initiate an experiment, growth medium was removed from the 12-well plates and cells were washed once with warm Hanks' buffered saline. The wash solution was then removed and replaced with fresh Hanks' solution containing forskolin (1 μM), rolipram (20 μM), N^6-cyclopentyladenosine (CPA, 0.01 nM), adenosine deaminase (2 U/mL), and the test compound. Forskolin was used to stimulate the activity of adenylyl cyclase, rolipram to inhibit cAMP phosphodiesterase, adenosine deaminase to degrade endogenous adenosine, and CPA to cause a small increase of the number of activated adenosine receptors. After 6 min of incubation at 36° C. in the presence of test compound, the incubation solution was removed and hydrochloric acid (final concentration 50 mM) was added to terminate drug action.
The content of cAMP in acidified extracts of cells was determined by radioimmunoassay as previously described (Kollias-Baker et al., (1997), J. Pharmacol. Exp. Ther. 281: 761–768). Because the magnitude of the effects of allosteric enhancers on CHO:huA1 cells changed subtly with passage number and differed slightly among different aliquots of cells, the actions of the test compounds and the action of a reference compound (PD 81,723) were assessed in each experiment. The effect of each test compound on cAMP content is presented in Table 1 as a percentage of the value of cAMP content in the absence of drug (control, 100%). Each value is a mean±standard error of 6 determinations in each of the number of experiments indicated in the “n” column of the table.

Compound	inhibition at 0.01 µM (0.01 μM test compound)	inhibition at 0.1 µM (0.1 μM test compound)	inhibition at 1 µM (1 μM test compound)	inhibition at 10 µM (10 μM test compound)	Change in cAMP Content from Control (mean + SEM) (0.01 μM test compound)	Change in cAMP Content from Control (mean + SEM) (0.1 μM test compound)	Change in cAMP Content from Control (mean + SEM) (1 μM test compound)	Change in cAMP Content from Control (mean + SEM) (10 μM test compound)
Nc1sc2c(c1C(=O)c1ccco1)CCN(Cc1ccccc1)C2 [Example 12, (2-Amino-6-benzyl-4,5,6,7-tetrahydrothieno[2,3-c]pyridin-3-yl)-furan-2-yl-methanone]	27 ± 4%	0.6 ± 4%	15 ± 3%	8 ± 11%	–	–	–	–
Nc1sc2c(c1C(=O)c1ccc(Cl)cc1)CCS2 [Example 3, (2-Amino-4,5-dihydrothieno[2,3-b]thiophen-3-yl)-(4-chlorophenyl)-methanone]	1 ± 4%	-11 ± 4%	-1 ± 3%	35 ± 4%	–	–	–	–
Nc1sc2c(c1C(=O)c1ccccn1)CCC2 [Example 17]	–	–	–	–	−3 ± 4%	0.8 ± 7%	−1 ± 6%	2 ± 7%
Nc1sc2c(c1C(=O)c1ccc(Br)c3ccccc13)CCCC2 [Example 29, (2-Amino-4,5,6,7-tetrahydrobenzo[b]thiophen-3-yl)-(4-bromonaphthalen-1-yl)-methanone]	6 ± 3%	10 ± 2%	29 ± 2%	72 ± 1%	–	–	–	–
COc1ccc(C(=O)c2c(N)sc3c2CCC3)c2ccccc12 [Example 23]	–	–	–	–	−6 ± 3%	−3 ± 4%	−8 ± 4%	−35 ± 3%
Nc1sc2c(c1C(=O)c1ccc(Cl)c3ccccc13)CCCC2 [Example 28, (2-Amino-4,5,6,7-tetrahydrobenzo[b]thiophen-3-yl)-(4-chloronaphthalen-1-yl)-methanone]	11 ± 3%	-3 ± 3%	25 ± 4%	44 ± 2%	–	–	–	–
Nc1sc2c(c1C(=O)c1ccc(I)c3ccccc13)CCCC2 [Example 26, (2-Amino-4,5,6,7-tetrahydrobenzo[b]thiophen-3-yl)-(4-iodonaphthalen-1-yl)-methanone]	3 ± 4%	4 ± 4%	24 ± 5%	67 ± 2%	–	–	–	–
Nc1sc2c(c1C(=O)c1ccc(Cl)c3ccccc13)CCC2 [Example 25, (2-Amino-5,6-dihydro-4H-cyclopenta[b]thiophen-3-yl)-(4-chloronaph-thalen-1-yl)-methanone]	–	–	–	–	−10 ± 2%	−15 ± 4%	−27 ± 2%	−55 ± 2%
Nc1sc2c(c1C(=O)c1ccccn1)CCN(Cc1ccccc1)C2 [Example 20, (2-Amino-6-benzyl-4,5,6,7-tetrahydrothieno[2,3-c]pyridin-3-yl)-pyridin-2-yl-methanone]	-2 ± 4%	-7 ± 5%	-0.1 ± 5%	-31 ± 3%	–	–	–	–
Nc1sc2c(c1C(=O)c1cc3ccccc3o1)CCN(Cc1ccccc1)C2 [Example 16, (2-Amino-6-benzyl-4,5,6,7-tetrahydrothieno[2,3-c]pyridin-3-yl)-benzofuran-2-yl-methanone]	-4 ± 3%	-14 ± 4%	10 ± 2%	-11 ± 4%	–	–	–	–
Nc1sc2c(c1C(=O)c1ccc(Br)c3ccccc13)CCC2 [Example 22, (2-Amino-5,6-dihydro-4H-cyclopenta[b]thiophen-3-yl)-(4-bromonaphthalen-1-yl)-methanone]	-3 ± 3%	-19 ± 5%	14 ± 5%	67 ± 3%	–	–	–	–
Cc1sc(N)c(C(=O)c2ccccn2)c1C [Example 21, (2-Amino-4,5-dimethylthiophen-3-yl)-pyridin-2-yl-methanone]	-0.7 ± 3%	8 ± 3%	-4 ± 4%	-14 ± 4%	–	–	–	–
Nc1sc2c(c1C(=O)c1ccc(Cl)cc1)CCSC2 [Example 2, (2-Amino-4,7-dihydro-5H-thieno[2,3-c]thiopyran-3-yl)-(4-chlorophenyl)-methanone]	-15 ± 3%	10 ± 4%	-16 ± 5%	0.3 ± 5%	–	–	–	–
Nc1sc2c(c1C(=O)c1ccc3ccccc3c1)CCC2 [Example 31, (2-Amino-5,6-dihydro-4H-cyclopenta[b]thiophen-3-yl)-naphthalen-2-yl-methanone]	19 ± 3%	14 ± 4%	15 ± 3%	51 ± 3%	–	–	–	–

Continued, values first:

inhibition at 0.01 µM (0.01 μM test compound)	inhibition at 0.1 µM (0.1 μM test compound)	inhibition at 1 µM (1 μM test compound)	inhibition at 10 µM (10 μM test compound)	Change in cAMP Content from Control (mean + SEM) (0.01 μM test compound)	Change in cAMP Content from Control (mean + SEM) (0.1 μM test compound)	Change in cAMP Content from Control (mean + SEM) (1 μM test compound)	Change in cAMP Content from Control (mean + SEM) (10 μM test compound)	Compound
5 ± 3%	13 ± 3%	-3 ± 5%	4 ± 6%	–	–	–	–	Nc1sc2c(c1C(=O)c1cc3ccccc3o1)CCC2 [Example 15, (2-Amino-5,6-dihydro-4H-cyclopenta[b]thiophen-3-yl)-benzofuran-2-yl-methanone]
4 ± 5%	-11 ± 5%	7 ± 5%	-5 ± 10%	–	–	–	–	Cc1sc(N)c(C(=O)c2ccco2)c1C [Example 13, (2-Amino-4,5-dimethylthiophen-3-yl)-furan-2-yl-methanone]
13 ± 4%	24 ± 3%	28 ± 2%	42 ± 3%	–	–	–	–	Nc1sc2c(c1C(=O)c1ccc3ccccc3c1)CCCC2 [Example 30, (2-Amino-4,5,6,7-tetrahydrobenzo[b]thiophen-3-yl)-naphthalen-2-yl-methanone]
13 ± 5%	3 ± 4%	4 ± 3%	5 ± 4%	–	–	–	–	Nc1sc2c(c1C(=O)c1cc3ccccc3o1)CCCC2 [Example 14, (2-Amino-4,5,6,7-tetrahydrobenzo[b]thiophen-3-yl)-benzofuran-2-yl-methanone]
–	–	–	–	−11 ± 3%	−11 ± 5%	−16 ± 3%	−40 ± 2%	Nc1sc2c(c1C(=O)c1cccs1)CCCC2 [Example 5]
8 ± 5%	14 ± 4%	25 ± 5%	-8 ± 5%	–	–	–	–	CC(=O)Nc1sc2c(c1C(=O)c1ccco1)CCCC2 [Example 10, N-[3-(Furan-2-carbonyl)-4,5,6,7-tetrahydrobenzo[b]thiophen-2-yl]-acetamide]
-3 ± 4%	14 ± 4%	0.8 ± 3%	23 ± 2%	–	–	–	–	Nc1sc2c(c1C(=O)c1ccco1)CCC2 [Example 11, (2-Amino-5,6-dihydro-4H-cyclopenta[b]thiophen-3-yl)-furan-2-yl-methanone]
–	–	–	–	5 ± 4%	−5 ± 4%	−3 ± 3%	−17 ± 1%	COc1ccc(C(=O)c2c(N)sc3c2CCCC3)c2ccccc12 [Example 27, (2-Amino-4,5,6,7-tetrahydrobenzo[b]thiophen-3-yl)-(4-methoxynaph-thalen-1-yl)-methanone]
